Assay results as given in US10478425B2, “5-phenylazaindole derivative having AMPK-activating activity” (Shionogi & Co., Ltd., priority 2016, dated 2019).
Like-named read-outs stand apart in the source and are kept apart here.

Target: T1, Human AMPK α2β2γ1 (Homo sapiens, UniProt O43741+P54646)
T1 construct: The full length cDNAs of human AMPK β2 (NM_005399.3) and human AMPK α2 (NM_006252.3); The full length cDNAs of human AMPK β2 (NM_005399.3); the full length cDNA of human AMPK γ1 (NM_002733.3) had been inserted into pET28b(+); 6×His (N); made in house; host or cells: Escherichia coli BL21 CodonPlus (DE3)-RIL
Assay: Test Example 2: activation of phosphorylated human AMPK α2β2γ1 (mobility-shift kinase assay, FL-Peptide 7)
Assay type: biochemical
Conditions: for EC150: compound concentration showing 150% relative to the control (100%), human AMPK α2β2γ1 phosphorylated with CaMKK2; for Emax: maximum rate of increase in activity within the measurement range, control = 100%
Experimental: The full length cDNAs of human AMPK β2 (NM_005399.3) and human AMPK α2 (NM_006252.3) were inserted into the MCS1 and MCS2 of the pETDuet-1 vector to prepare a human AMPK β2 and human AMPK α2 (6×His tag at the 5′ terminus) expressing plasmid. The plasmid was cotransfected with an expression plasmid, in which the full length cDNA of human AMPK γ1 (NM_002733.3) had been inserted into pET28b(+), into BL21 CodonPlus (DE3)-RIL to obtain an expression strain. The expression strain was cultured in TB medium, followed by induction with 0.5 mM IPTG, and cultured at 25° C. for 3 hours and then harvested. After ultrasonication, supernatant was collected and applied to Histrap FF column (GE) and RESOUECE Q column (GE) to prepare 12.5 mg of purified sample containing three types of subunit from 1.8 L of broth.
An expression vector, in which the full length cDNA of human CAMKK β (NM_172226.1) had been inserted into pGEX-6P-3, was transfected into BL21 Star (DE3). The expression strain was cultured in TB medium, followed by induction with 0.5 mM IPTG, and cultured at 25° C. for 3 hours and then harvested. After ultrasonication, supernatant was collected and applied to GSTrap FF column (GE) to prepare 14 mg of GST-fused CAMKK β from 720 ml of broth.
Thus, phosphorylation treatment was carried out as pretreatment.
Human AMPK α2β2γ1 in an amount to give a conversion rate of approximately 10% by reaction for 2 hours, and CaMKK2 in an amount capable of sufficiently imparting activity to AMPK for one hour were mixed in a buffer solution consisting of a 50 mM HEPES-NaOH buffer solution (pH 7.0), 100 mM NaCl, 5 mM magnesium chloride, 0.1% bovine serum albumin, 0.2 mM sodium orthovanadate(V), 1 mM ethylene glycol-bis(2-aminoethyl ether)-N,N,N′,N′-tetraacetic acid (EGTA), 5 mM disodium β-glycerophosphate, 1 mM dithiothreitol and 0.2 mM ATP, and the resulting liquid was left to stand at 25° C. for 1 to 1.5 hours to sufficiently phosphorylate AMPK.
After that, to the enzyme liquid, which had been subjected to phosphorylation treatment, a compound dissolved in DMSO was added so as to have a 1% DMSO concentration. The resulting liquid was left to stand for 10 minutes.
To the liquid, a substrate solution consisting of a 50 mM HEPES-NaOH buffer solution (pH 7.0), 100 mM NaCl, 10 mM magnesium chloride, 0.1% bovine serum albumin, 0.2 mM sodium orthovanadate(V), 1 mM ethylene glycol-bis(2-aminoethyl ether)-N,N,N′,N′-tetraacetic acid (EGTA), 5 mM disodium β-glycerophosphate, 2 mM dithiothreitol, 0.4 mM ATP and 3 μM FL-Peptide 7 (manufactured by Caliper Life Sciences, Inc.) was added in equal amount (10 μl in total). The resulting liquid was allowed to react at 25° C. for 2 hours, then 10 μl of 20 mM EDTA was added thereto to stop the reaction.
To detect phosphorylated fluorescent substrates, the reaction mixture was applied to a measuring device, LabChip EZ Reader II manufactured by Caliper Life Science, Inc., for detecting fluorescence by using differences in mobility due to differences in charge. The setting conditions for the device were pressure, −1.5 PSI; upstream voltage, −2250 V; downstream voltage, −400 V; post sample buffer sip time, 40 seconds; final delay, 120 seconds; and peak order, Product First.
A conversion rate was calculated from the peak heights of the obtained substrate and product. The conversion rate when not containing a compound was used as a control, and a concentration dependent curve was made by plotting the rate of increase in activity to the control at each concentration of a compound.

T1 sequence (P54646 whole entry): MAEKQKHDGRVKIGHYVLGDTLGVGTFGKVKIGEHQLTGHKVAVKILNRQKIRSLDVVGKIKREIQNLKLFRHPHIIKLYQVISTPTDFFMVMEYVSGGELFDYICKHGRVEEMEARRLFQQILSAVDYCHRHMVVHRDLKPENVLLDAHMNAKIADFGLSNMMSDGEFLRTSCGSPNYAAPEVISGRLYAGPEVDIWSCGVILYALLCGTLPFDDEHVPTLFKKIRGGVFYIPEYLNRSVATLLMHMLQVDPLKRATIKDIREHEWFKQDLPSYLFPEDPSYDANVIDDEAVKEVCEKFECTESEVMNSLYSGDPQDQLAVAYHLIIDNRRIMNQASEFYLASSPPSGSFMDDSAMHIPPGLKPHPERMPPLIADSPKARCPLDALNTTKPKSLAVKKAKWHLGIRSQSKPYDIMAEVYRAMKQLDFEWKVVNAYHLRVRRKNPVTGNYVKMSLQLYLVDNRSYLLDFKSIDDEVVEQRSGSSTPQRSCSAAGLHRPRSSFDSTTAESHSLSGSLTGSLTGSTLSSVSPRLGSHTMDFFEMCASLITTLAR
T1 sequence (O43741 whole entry): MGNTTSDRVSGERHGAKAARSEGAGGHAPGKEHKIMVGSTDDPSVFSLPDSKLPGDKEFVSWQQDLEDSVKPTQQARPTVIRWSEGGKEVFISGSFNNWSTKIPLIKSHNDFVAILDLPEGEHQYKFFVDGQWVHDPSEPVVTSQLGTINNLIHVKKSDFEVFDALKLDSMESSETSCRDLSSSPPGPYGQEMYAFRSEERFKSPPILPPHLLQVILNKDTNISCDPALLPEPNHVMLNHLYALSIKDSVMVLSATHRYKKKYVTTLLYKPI
T1 sequence (P54619 whole entry partner): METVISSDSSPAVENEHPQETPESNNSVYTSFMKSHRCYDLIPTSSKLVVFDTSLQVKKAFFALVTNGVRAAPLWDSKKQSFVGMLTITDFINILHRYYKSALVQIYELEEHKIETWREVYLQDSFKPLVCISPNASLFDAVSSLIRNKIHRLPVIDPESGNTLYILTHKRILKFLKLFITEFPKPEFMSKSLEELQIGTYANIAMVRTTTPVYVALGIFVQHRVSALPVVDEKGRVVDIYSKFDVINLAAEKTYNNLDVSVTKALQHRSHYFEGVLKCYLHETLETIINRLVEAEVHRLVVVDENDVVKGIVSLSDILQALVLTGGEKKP

SMILES: CNC(=O)Nc1ccc(-c2ccc(-c3nc4cc(O[C@@H]5CO[C@H]6[C@@H]5OC[C@H]6O)[nH]c4cc3F)cc2)cc1 [Compound I-1-08]
- EC150: 4.7 nM
- Emax (read-out: Emax): 444%

SMILES: O[C@@H]1CO[C@H]2[C@@H]1OC[C@H]2Oc1cc2nc(-c3ccc(-c4ccc(OC5COC5)cc4)cc3)c(F)cc2[nH]1 [Compound I-1-28]
- EC150: 15 nM
- Emax (read-out: Emax): 596%

SMILES: CCOCCOc1ccc(-c2ccc(-c3nc4cc(O[C@@H]5CO[C@H]6[C@@H]5OC[C@H]6O)[nH]c4cc3F)cc2)cc1 [Compound I-2-61]
- EC150: 5.1 nM
- Emax (read-out: Emax): 562%

SMILES: COCCN(C)C(=O)c1ccc(-c2ccc(-c3nc4cc(O[C@@H]5CO[C@H](CO)C5)[nH]c4cc3F)cc2)cc1 [Compound I-2-83]
- EC150: 0.73 nM
- Emax (read-out: Emax): 581%

SMILES: CS(C)(=O)=Nc1ccc(-c2ccc(-c3nc4cc(O[C@@H]5CO[C@H](CO)[C@H]5O)[nH]c4cc3F)cc2)cc1 [Compound I-2-23]
- EC150: 28 nM
- Emax (read-out: Emax): 224%

SMILES: CCP(=O)(CC)c1ccc(-c2ccc(-c3nc4cc(O[C@@H]5CO[C@H]6[C@@H]5OC[C@H]6O)[nH]c4cc3F)cc2)cc1 [Compound I-2-72]
- EC150: 2.7 nM
- Emax (read-out: Emax): 591%

SMILES: O[C@@H]1CO[C@H]2[C@@H]1OC[C@H]2Oc1cc2nc(-c3ccc(-c4ccc(CN5CCOCC5)cc4)cc3)c(F)cc2[nH]1 [Compound I-2-22]
- EC150: 5.9 nM
- Emax (read-out: Emax): 348%

SMILES: CS(C)(=O)=Nc1ccc(-c2ccc(-c3nc4cc(O[C@H]5CO[C@H](CO)[C@@H](O)C5)[nH]c4cc3F)cc2)cc1 [Compound I-1-04]
- EC150: 6.2 nM
- Emax (read-out: Emax): 332%

SMILES: COCCOc1ccc(-c2ccc(-c3nc4cc(O[C@@H]5CO[C@H](CO)C5)[nH]c4cc3F)cc2)cc1 [Compound I-2-02]
- Emax (read-out: Emax): 537%

SMILES: O[C@@H]1CO[C@H]2[C@@H]1OC[C@H]2Oc1cc2nc(-c3ccc(C#CC4CCNCC4)cc3)c(F)cc2[nH]1 [Compound I-2-64]
- EC150: 16 nM
- Emax (read-out: Emax): 536%

SMILES: O[C@@H]1CO[C@H]2[C@@H]1OC[C@H]2Oc1cc2nc(-c3ccc(-c4ccc(OC5CNC5)cc4)cc3)c(F)cc2[nH]1 [Compound I-1-63]
- EC150: 3.2 nM
- Emax (read-out: Emax): 361%

SMILES: CS(C)(=O)=Nc1ccc(-c2ccc(-c3nc4cc(O[C@@H]5CC[C@@H](CO)OC5)[nH]c4cc3F)cc2)cc1 [Compound I-1-06]
- EC150: 19 nM
- Emax (read-out: Emax): 263%

SMILES: CNC(=O)c1ccc(-c2ccc(-c3nc4cc(O[C@@H]5CO[C@H]6[C@@H]5OC[C@H]6O)[nH]c4cc3F)cc2)cc1 [Compound I-1-55]
- EC150: 0.34 nM
- Emax (read-out: Emax): 431%

SMILES: CNS(C)(=O)=Nc1ccc(-c2ccc(-c3nc4cc(O[C@@H]5CO[C@H](CO)C5)[nH]c4cc3F)cc2)cc1 (stereo partly shown) [Compound I-2-46]
- EC150: 2.8 nM
- Emax (read-out: Emax): 699%

SMILES: O[C@@H]1CO[C@H]2[C@@H]1OC[C@H]2Oc1cc2nc(-c3ccc(-c4ccc(OC5CCNCC5)cc4)cc3)c(F)cc2[nH]1 [Compound I-2-60]
- EC150: 2 nM
- Emax (read-out: Emax): 564%

SMILES: CN(C)C(=O)OC1CCN(c2ccc(-c3nc4cc(O[C@@H]5CO[C@H]6[C@@H]5OC[C@H]6O)[nH]c4cc3F)cc2)CC1 [Compound I-1-50]
- EC150: 23 nM
- Emax (read-out: Emax): 539%

SMILES: O=C1OCCN1c1ccc(-c2ccc(-c3nc4cc(O[C@@H]5CO[C@H]6[C@@H]5OC[C@H]6O)[nH]c4cc3F)cc2)cc1 [Compound I-2-41]
- EC150: 0.8 nM
- Emax (read-out: Emax): 634%

SMILES: OCCCc1ccc(-c2ccc(-c3nc4cc(O[C@@H]5CO[C@H]6[C@@H]5OC[C@H]6O)[nH]c4cc3F)cc2)cc1 [Compound I-2-30]
- EC150: 4.3 nM
- Emax (read-out: Emax): 605%

SMILES: COCCOc1ccc(-c2ccc(-c3nc4cc(O[C@@H]5CO[C@H]6[C@@H]5OC[C@H]6O)[nH]c4cc3F)cc2)cc1F [Compound I-2-59]
- EC150: 40 nM
- Emax (read-out: Emax): 458%

SMILES: CNS(C)(=O)=Nc1ccc(-c2ccc(-c3nc4cc(O[C@@H]5CO[C@H]6[C@@H]5OC[C@H]6O)[nH]c4cc3F)cc2)cc1 (stereo partly shown) [Compound I-2-04]
- EC150: 0.67 nM
- Emax (read-out: Emax): 638%

SMILES: C[S+]([O-])c1ccc(-c2ccc(-c3nc4cc(O[C@@H]5CO[C@H](CO)C5)[nH]c4cc3F)cc2)cc1 (single isomer, unassigned) [Compound I-2-07]
- EC150: 0.68 nM
- Emax: 638%

SMILES: CP(C)(=O)c1ccc(-c2ccc(-c3nc4cc(O[C@@H]5CO[C@H](CO)C5(F)F)[nH]c4cc3F)cc2)cc1 [Compound I-2-89]
- EC150: 0.94 nM
- Emax (read-out: Emax): 556%

SMILES: COCCOC1CCN(c2ccc(-c3nc4cc(O[C@@H]5CO[C@H]6[C@@H]5OC[C@H]6O)[nH]c4cc3F)cc2)CC1 [Compound I-2-34]
- EC150: 20 nM
- Emax (read-out: Emax): 425%

SMILES: COCC[S+]([O-])c1ccc(-c2ccc(-c3nc4cc(O[C@@H]5CO[C@H]6[C@@H]5OC[C@H]6O)[nH]c4cc3F)cc2)cc1 (stereo partly shown) [Compound I-2-93]
- EC150: 1.1 nM
- Emax (read-out: Emax): 652%

SMILES: CCO[C@H]1[C@@H](CO)OC[C@H]1Oc1cc2nc(-c3ccc(-c4ccc(N=S(C)(C)=O)cc4)cc3)c(F)cc2[nH]1 [Compound I-2-55]
- EC150: 19 nM
- Emax (read-out: Emax): 507%

SMILES: O=C(c1ccc(-c2ccc(-c3nc4cc(O[C@@H]5CO[C@H](CO)C5(F)F)[nH]c4cc3F)cc2)cc1)N1CCOCC1 [Compound I-2-97]
- EC150: 4.6 nM
- Emax (read-out: Emax): 527%

SMILES: O[C@@H]1CO[C@H]2[C@@H]1OC[C@H]2Oc1cc2nc(-c3ccc(-c4ccc(C5=NCCN5)cc4)cc3)c(F)cc2[nH]1 [Compound I-1-38]
- EC150: 0.99 nM
- Emax (read-out: Emax): 470%

SMILES: CNS(=O)(=O)c1ccc(-c2ccc(-c3nc4cc(O[C@@H]5CO[C@H]6[C@@H]5OC[C@H]6O)[nH]c4cc3F)cc2)nc1 [Compound I-1-32]
- EC150: 8 nM
- Emax (read-out: Emax): 456%

SMILES: CNC(=O)OC1CCN(c2ccc(-c3nc4cc(O[C@@H]5CO[C@H]6[C@@H]5OC[C@H]6O)[nH]c4cc3F)cc2)CC1 [Compound I-1-49]
- EC150: 19 nM
- Emax (read-out: Emax): 551%

SMILES: OC[C@H]1OC[C@@H](Oc2cc3nc(-c4ccc(C5(CO)CC5)cc4)c(F)cc3[nH]2)C1(F)F [Compound I-2-90]
- EC150: 1.9 nM
- Emax (read-out: Emax): 406%

SMILES: CP(C)(=O)c1ccc(-c2ccc(-c3nc4cc(O[C@@H]5CO[C@H]6[C@@H]5OC[C@H]6O)[nH]c4cc3F)cc2)cc1 [Compound I-2-56]
- EC150: 1.6 nM
- Emax (read-out: Emax): 618%

SMILES: COCCCc1ccc(-c2ccc(-c3nc4cc(O[C@@H]5CO[C@H]6[C@@H]5OC[C@H]6O)[nH]c4cc3F)cc2)cc1 [Compound I-2-29]
- EC150: 48 nM
- Emax (read-out: Emax): 367%

SMILES: C[S+]([O-])c1ccc(-c2ccc(-c3nc4cc(O[C@@H]5CO[C@H](CO)C5)[nH]c4cc3F)cc2)cc1 (single isomer, unassigned) [Compound I-2-06]
- EC150: 0.46 nM
- Emax (read-out: Emax): 621%

SMILES: COC(=O)NC1CCN(c2ccc(-c3nc4cc(O[C@@H]5CO[C@H](CO)C5)[nH]c4cc3F)cc2)CC1 [Compound I-1-03]
- EC150: 9.8 nM
- Emax (read-out: Emax): 556%
